Reference: patent US6359009B1, “Substituted anilide insecticidal agents” (BASF Aktiengesellschaft, priority 1998, dated 2002)

Assays:
[1] = test system: Diabrotica virgifera virgifera Leconte, 3rd instar western corn rootworm; experiment: Evaluation against 3rd instar western corn rootworm, treated talc/soil jar test, mortality after 5 days; assay type: in vivo; settings: mortality rating 0-9 after 5 days in soil
Procedure: (§1) Test solutions are prepared by dissolving the test compound in a 35% acetone in water mixture to give a concentration of 10,000 ppm. Subsequent dilutions are made with water as needed.
Diabrotica virgifera virgifera Leconte, 3rd instar western corn rootworm
(§2) One cc of fine talc is placed in a 30 mL wide-mouth screw-top glass jar. One mL of the appropriate acetone test solution is pipetted onto the talc so as to provide 1.25 mg, 0.25 mg or 0.025 mg of active ingredient per jar. The jars are set under a gentle air flow until the acetone is evaporated. The dried talc is loosened, 1 cc of millet seed is added to serve as food for the insects and 25 mL of moist soil is added to each jar. The jar is capped and the contents thoroughly mixed mechanically. Following this, ten 3rd instar rootworms are added to each jar and the jars are loosely capped to allow air exchange for the larvae. The treatments are held for 5 days when mortality counts are made. Missing larvae are presumed dead, since they decompose rapidly and can not be found.

[2] = test system: Diabrotica undecimrunctata howardi, 3rd instar southern corn rootworm; experiment: Evaluation against 3rd instar southern corn rootworm, treated talc/soil jar test, mortality after 5 days; assay type: in vivo, Diabrotica undecimpunctata howardi; settings: mortality rating 0-9 after 5 days in soil
Procedure: as §1
Diabrotica undecimrunctata howardi, 3rd instar southern corn rootworm
as §2

Row | SMILES | Western Corn Rootworm (1 ppm) rating ([1]; 1 ppm) | Western Corn Rootworm (10 ppm) rating ([1]; 10 ppm) | Western Corn Rootworm (50 ppm) rating ([1]; 50 ppm) | Southern Corn Rootworm (1 ppm) rating [2] | Southern Corn Rootworm (10 ppm) rating [2] | Southern Corn Rootworm (50 ppm) rating [2]
1 | CC(C)[S+]([O-])C(C)(C)C(=O)Nc1ccc(C(F)(F)F)cc1 (stereo not drawn) [Compound 12, α,α,α-Trifluoro-2-(isopropylsulfinyl)-2-methyl-p-propionotoluidide] | 0.0 | 0.0 | 9.0 | 8.0 | 9.0 | 9.0
2 | CC(C)C(=O)C(C)(C)C(=O)N(C(=O)c1c(F)cccc1F)c1ccc(C(F)(F)F)cc1 [Compound 8, α,α,α,2,6-Pentafluoro-N-(2,2,4#trimethyl-3 oxovaleryl)-p-benzotoluidide] | – | – | – | 0.0 | 0.0 | 4.0
3 | CC(C)/C(=N\O)C(C)(C)C(=O)Nc1ccc(C(F)(F)F)cc1 [Compound 10, α,α,α-Trifluoro-2,2,4-trimethyl-3-oxo-p-valerotoluidide, 3-oxime] | – | – | – | – | – | 7.0
4 | CC(C)C(=O)C(C)(C)C(=O)N(C(=O)c1ccc(Cl)cc1)c1ccc(C(F)(F)F)cc1 [Compound 7, 4-Chloro-α,α,α-trifluoro-N-(2,2,4-trimethyl-3 oxovaleryl)-p-benzotoluidide] | – | – | – | 0.0 | 9.0 | 9.0
5 | CC(=O)OC(C(C)C)C(C)(C)C(=O)Nc1ccc(Cl)cc1 (stereo not shown) [Compound 14, 4′-chloro-3-hydroxy-2,2,4-trimethylvaleranilide, acetate (ester)] | – | – | – | 9.0 | 9.0 | 9.0
6 | CC(C)C(=O)C(C)(C)C(=O)Nc1ccc(C(F)(F)F)cc1 [Compound 1, α,α,α-Trifluoro-2,2,4-trimethyl-3-oxo-p-valerotoluidide] | – | – | – | 9.0 | 9.0 | 9.0
